Test results as given in PubChem BioAssay (NCI).
Where “and” joins values, the source holds several entries; their conditions need not be identical. Equal values may be shown once.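 Tested at 5 concentrations; 48 h exposure; 96-well plates; endpoints linearly interpolated, else capped at highest concentration. GI50 marks 50% less growth. TGI is the concentration that stops growth completely.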

test system: UACC-62 melanoma; assay: inhibition of tumour cell growth, NCI panel, 48 h

Compound | TGI [µM] | GI50 [nM]
CC12C/C(=C\c3ccccc3)C(=O)C3C1CCCC32 | > 100 | –
OC(CC1SCCCS1)c1ccccc1 (configuration not stated) | > 100 | –
CCCCOC(=O)CNC(=O)OC/C=C/C#CC#C/C=C/COC(=O)NCC(=O)OCCCC | > 100 | > 100000
O=C1c2ccccc2C(=O)N1CCn1ccc(NC(c2ccccc2)(c2ccccc2)c2ccccc2)nc1=O | 26 | –
CC(C)(C)NNC(=O)CCn1[nH]c(=O)c(Cl)c(Cl)c1=O | > 100 | –
CCC12CCCN(Cc3ccccc3)C1c1c(n(C)c3ccccc13)CC2 (configuration not stated) | > 253 | –
CSc1nc(=O)n(CCC#N)nc1SC | > 100 | –
Nc1ccc([N+](=O)[O-])cc1N=C/C=C/c1ccccc1 | > 100 | 11900
Cc1cc(Nc2ccc(NC(=O)c3ccc(Nc4ccnc5ccccc45)cc3)cc2)nc(N)n1 | 5.84 | 2330
COc1cc(-c2oc(=O)ccc2C#Cc2ccccn2)cc(OC)c1OC | > 20.1 | 1820
CCN(CC)CCCN1CCc2c([nH]c3ccccc23)C1c1cccnc1 (configuration not stated) | > 100 | –
COC(=O)C1c2cc3c(cc2C(OC2OC(C)C(OC)C(C)(OC)C2OC)CC1(C)O)C(=O)c1c(O)cc2c(c1C3=O)OC1OC2(C)C(O)C([N+](C)(C)[O-])C1O (configuration not stated) | 0.311 | –
CNCc1ccccc1-c1csc([C@@H](C)Nc2nc(C)nc3cc(OC)c(OC)cc23)c1 | 3.43 | 1840
Nc1nc(Cl)cc(NCCCCCCCCNc2cc(Cl)nc(N)n2)n1 | 95.3 | –
CC(C)N(C(=O)C12C3C4C1C1C4(C#N)C3C12C#N)C(C)C (configuration not stated) | > 100 | –
O=C1CCC(Cl)=CC2CCCN12 (configuration not stated) | > 100 | –
c1ccc2cc(-c3cc4ccccc4s3)ccc2c1 | > 100 | –
CCOC(=O)C(C#N)C1=CC(=O)C(=O)c2ccc(OC)cc21 (configuration not stated) | 28.5 | –
Cc1ccc(S(=O)(=O)Nc2ccccc2C=O)cc1 | 27 | –
Cc1ccc(S(=O)(=O)N(C=O)N=C2CCN(Cc3ccccc3)CC2)cc1 | > 100 | –
CCC(=O)CC(=O)CCC(=O)Nc1cc(C)ccc1C | > 100 | –
CC[As](CC)SC[C@H](C)C(=O)N1CCC[C@H]1C(=O)O | 0.538 | 149
NC(N)=N/N=C/c1c(-c2ccsc2)nc2sccn12 | 29 | 15600
O=c1/c(=C/c2ccccc2[N+](=O)[O-])sc2nnc(-c3ccco3)n12 | > 100 | –
CC(=O)CCn1ncc(Cl)c(Cl)c1=O | 33.3 | –
C[N+](C)(C)CC1CCCc2ccccc2C1=O (configuration not stated) | 26.5 | –
CN1CC(=O)N2Cc3ccccc3-n3cccc3C2C1 (configuration not stated) | > 100 | –
Cc1ccc(SC2c3ccc(C)cc3Oc3nc(N)c(C#N)c(N)c32)cc1 (configuration not stated) | 3.13 | 1610
Cc1cn2c(=O)c3ncn(C4OC(CO)C(O)C4O)c3n(C)c2n1 (configuration not stated) | > 100 | –

test system: SF-268 CNS; assay: inhibition of tumour cell growth, NCI panel, 48 h

Compound | TGI | GI50 [µM]
Clc1ccc2c(c1)[nH]c1c2nc2ccccn21 | 87.7 µM and 37.1 µM | –
CCOC(=O)c1cnc2c(ccc3[nH]n(C)nc32)c1=O | > 100 µM | –
NC(=S)N/N=C(\CC1OC(=O)c2ccccc21)c1ccc(Cl)cc1 (configuration not stated) | > 100 µM | –
COC(=O)C(C(=O)c1ccccc1)C(C(=O)C(=O)Nc1ccc(OC)cc1OC)C(=O)C(=O)c1ccc(C)cc1 (configuration not stated) | > 100 µM | –
CC1(C)COC(C2(C)C(=O)C=C(c3ccccc3)c3ccccc32)=N1 (configuration not stated) | > 100 µM | –
O=C(Nc1ccn(CCO)c(=O)n1)c1ccccc1 | > 100 µM | –
O=C1CCC2(c3ccc(Cl)cc3)Nc3ncccc3N12 (configuration not stated) | > 100 µM | –
COc1ccc(Sc2[nH]c(C(C)=O)c3ccccc23)cc1 | 27.1 µM | 12.9
C#CCOc1cccc(-c2ncc3cc(NC(=O)CCl)ccc3n2)c1 | 5.25 µM | 2.03
CC12C/C(=C\c3ccccc3)C(=O)C3C1CCCC32 | > 100 µM | –
OC(CC1SCCCS1)c1ccccc1 (configuration not stated) | > 100 µM | –
CCCCOC(=O)CNC(=O)OC/C=C/C#CC#C/C=C/COC(=O)NCC(=O)OCCCC | > 100 µM | > 100
O=C1c2ccccc2C(=O)N1CCn1ccc(NC(c2ccccc2)(c2ccccc2)c2ccccc2)nc1=O | 45.3 µM | –
CC(C)(C)NNC(=O)CCn1[nH]c(=O)c(Cl)c(Cl)c1=O | > 100 µM | –
O=CCC1CCCCC1 | > 100 µM | –
CCC12CCCN(Cc3ccccc3)C1c1c(n(C)c3ccccc13)CC2 (configuration not stated) | > 253 µM | –
CSc1nc(=O)n(CCC#N)nc1SC | 53.1 µM | –
